# Laboratory results published in patent US20220079995A1 (priority 2018, published 2022).
# Tests used:
# [1] = tested on: human nucleus pulposus cells; assay type: cell-based; details: ascorbic acid alone (170 μM in medium), culture 2 weeks; average ± SEM; control 4.33 ± 0.38
# CSGALNACT1 mRNA = assay type: cell-based, human; details: ascorbic acid alone; 1 week; GAPDH internal standard; average ± SEM
# IGF1 mRNA = assay type: cell-based, human; details: ascorbic acid alone; 1 week; GAPDH internal standard; average ± SEM
# ANGPT1 mRNA = assay type: cell-based, human; details: ascorbic acid alone; 1 week; GAPDH internal standard; average ± SEM
smiles,measurement,setting,value
"O=C1O[C@H]([C@@H](O)CO)C(O)=C1O [Ascorbic Acid, ascorbic acid]",The Ratio of GAG to DNA,[1],5.88 ± 0.73
same,Ratio to Expression Level of CSGALNACT1 mRNA in Control Taken as 1,CSGALNACT1 mRNA,2.25 ± 0.55
same,Ratio to Expression Level of IGF1 mRNA in Control Taken as 1,IGF1 mRNA,8.92 ± 3.30
same,Ratio to Expression Level of ANGPT1 mRNA in Control Taken as 1,ANGPT1 mRNA,3.80 ± 0.91
